pIC50: −log10 of the molar value.
Assays:
KDR = KDR (Homo sapiens, UniProt P35968); experiment: KDR HTRF in vitro kinase assay; type: biochemical; design: purified enzyme (His6-KDR 789-1354, MW 63 kD); conditions: 1 mM ATP, 60 minutes
Experimental: To determine the activity of the various kinases, a homogenous time-resolved fluorescence (HTRF) in vitro kinase assay was used. (Mathis, G., HTRF(R) Technology. J Biomol Screen, 1999. 4(6): p. 309-314; Alfred J. Kolb, Paul V. Kaplita, David J. Hayes, Young-Whan Park, Christine Pernell, John S. Major and Gerard Mathis, Drug Discovery Today, 1998, 3, 333-342.)
For example for KDR, 7 ng/well of purified enzyme (His6-KDR 789-1354, MW 63 kD) was mixed with 0.5 μM N-biotinylated substrate (Biotin-Ahx-AEEEYFFLA-amide (SEQ. ID. 1)), various concentrations of inhibitor in reaction buffer (50 mM HEPES, pH 7.1, mM MgCl2, 2 mM MnCl2, 0.1% BSA and 1 mM DTT, […] final volume), ATP (1 mM final conc.) in a black 384-well plate. After 60 minutes incubation at room temperature, the reaction was quenched by addition of a buffered EDTA solution (final approximate concentrations: 30 mM EDTA, 0.1% BSA, 0.1% Triton X-100 and 0.24M KF) and a solution of revelation agents (to give 0.084 ng/well streptavidin-XL-665 (Cis-Bio) and 6.5 ng/well antiphsophotyrosine mAb PT66-K Europium kryptate) was added to the reaction mixture. The quenched reaction was allowed to stand at room temperature for 3 hours and was then read in a time-resolved fluorescence detector (InVision, Perkin-Elmer) at 620 nm and 665 nm sequentially with excitation. The ratio between the signal of 620 nm and 665 nm was used in the calculation of the IC50.

Aurora B = target: T1, Aurora B (Homo sapiens, UniProt Q96GD4); experiment: Aurora B enzyme assay (time-resolved fluorescence, histone H3 peptide); type: biochemical; conditions: 1 mM ATP, 1 hour
T1 construct: Active Aurora B enzyme (recombinant residues 1-344)
Experimental: To determine Aurora B activity of representative compounds of the invention, Active Aurora B enzyme (recombinant residues 1-344) and INCENP (recombinant GST fusion protein (Upstate)) were incubated in wells of a 384 well plate with biotinylted histone H3 peptide residues 1-21 (Upstate), 1 mM ATP, and various concentrations of inhibitors in a HEPES buffer, pH 7.4 containing MgCl2, sodium othrovanadate, and Triton X-100. After 1 hour, the reaction was stopped with EDTA and anti-phospho-histone H3 Europium Cryptate (Cis-Bio) and SA-APC (Phycolink, Prozyme) were added to detect the phosphopeptide. The amount of phosphorylation was determined by the time-resolved fluorescence ratio of signals at 665 nm and 615 nm. The IC50's were calculated by an exponential fit of the inhibition values with the inhibitor concentrations using Assay Explorer software.

Aurora A = target: T2, Aurora A (Homo sapiens, UniProt O14965); experiment: Aurora A enzyme assay (time-resolved fluorescence, STK substrate-2); type: biochemical; conditions: 1 mM ATP, 1 hour
T2 sequence (O14965 1-403): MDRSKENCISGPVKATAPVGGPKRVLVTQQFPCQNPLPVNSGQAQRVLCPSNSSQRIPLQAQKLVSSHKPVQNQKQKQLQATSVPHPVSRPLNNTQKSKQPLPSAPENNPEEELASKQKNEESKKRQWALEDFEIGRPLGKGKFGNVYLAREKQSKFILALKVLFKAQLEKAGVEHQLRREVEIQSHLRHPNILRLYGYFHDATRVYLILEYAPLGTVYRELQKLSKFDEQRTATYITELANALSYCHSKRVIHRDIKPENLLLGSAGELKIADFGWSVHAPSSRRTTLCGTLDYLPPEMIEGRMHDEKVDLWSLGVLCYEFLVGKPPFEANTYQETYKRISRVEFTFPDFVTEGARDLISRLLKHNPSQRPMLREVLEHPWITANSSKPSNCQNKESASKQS
Experimental: To determine Aurora A and C activity of representative compounds of the invention, Active Aurora A or C enzyme was incubated in wells of a 384 well plate with biotinylated STK substrate-2 (Upstate), 1 mM ATP, and various concentrations of inhibitors in a Hepes buffer, pH 7.4 containing MgCl2, sodium othrovanadate, and Triton X-100. After 1 hour, the reaction was stopped with EDTA and anti-phospho-STK antibody Europium Cryptate (Upstate) and SA-XL665 (Upstate) were added to detect the phosphopeptide. The amount of phosphorylation was determined by the time-resolved fluorescence ratio of signals at 665 nm and 615 nm. The IC50s were calculated by an exponential fit of the inhibition values with the inhibitor concentrations using Assay Explorer software.

[1] = tested on: H1299 cells (Human Non-Small Cell Lung Carcinoma); experiment: Induction of polyploidy in H1299 cells, high content analysis; type: cell-based; conditions: NCI-H1299 cells, 48 hours, polyploid = nuclear area >750μ2, read-out: Polyploid HCA IC50
Experimental: To determine the induction of polyploidy in H1299 cells (Human Non-Small Cell Lung Carcinoma), NCI-H1299 were seeded (4K/well) into 96-well culture plates (tissue culture grade, black, flat-clear bottom) and incubated overnight to produce cell-to-plate adherance Inhibitors at varying concentrations were added into duplicate wells containing cells and culture media (RPMI 1640, 10% fetal calf serum) and incubated at 37 C for 48 hours. The plates were then washed with PBS and the adherent cells fixed by incubating with 3% formalin for 1 hour. After washing four times with PBS, the cells were then stained with Hoechst and subjected to fluorescent (3601/460e) microscopic high content analysis to determine the effect of inhibitors on nuclear size. Polyploid cells (>4N) were defined as those having nuclear area >750μ2. […]

Chain of KDR (P35968 789-1354): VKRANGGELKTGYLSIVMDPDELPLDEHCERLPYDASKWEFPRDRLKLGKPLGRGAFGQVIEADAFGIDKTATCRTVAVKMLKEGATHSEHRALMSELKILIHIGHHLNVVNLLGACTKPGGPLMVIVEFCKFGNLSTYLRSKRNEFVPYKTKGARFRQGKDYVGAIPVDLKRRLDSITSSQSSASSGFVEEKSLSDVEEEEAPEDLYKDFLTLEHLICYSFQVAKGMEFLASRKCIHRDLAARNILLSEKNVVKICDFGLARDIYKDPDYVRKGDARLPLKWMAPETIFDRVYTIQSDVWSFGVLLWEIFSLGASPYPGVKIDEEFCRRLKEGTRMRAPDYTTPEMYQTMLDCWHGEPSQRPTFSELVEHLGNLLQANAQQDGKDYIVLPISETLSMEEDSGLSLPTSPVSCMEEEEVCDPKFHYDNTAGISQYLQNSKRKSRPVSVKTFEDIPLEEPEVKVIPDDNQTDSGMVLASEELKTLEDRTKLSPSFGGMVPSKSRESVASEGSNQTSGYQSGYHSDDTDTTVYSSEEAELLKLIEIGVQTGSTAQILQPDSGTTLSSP
T1 sequence (Q96GD4 whole entry, the tested form may be a part): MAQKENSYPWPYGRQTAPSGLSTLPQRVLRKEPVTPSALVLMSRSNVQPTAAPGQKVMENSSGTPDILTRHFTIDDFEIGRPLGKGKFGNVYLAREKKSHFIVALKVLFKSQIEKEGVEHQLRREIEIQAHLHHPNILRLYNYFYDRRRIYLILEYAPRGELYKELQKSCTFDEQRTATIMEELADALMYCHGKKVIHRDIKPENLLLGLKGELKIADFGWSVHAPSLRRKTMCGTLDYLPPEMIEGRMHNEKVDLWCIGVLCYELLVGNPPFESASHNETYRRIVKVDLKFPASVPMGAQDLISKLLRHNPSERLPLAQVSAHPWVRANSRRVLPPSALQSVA
T1 sequence (Q9NQS7 826-918 partner limits assumed): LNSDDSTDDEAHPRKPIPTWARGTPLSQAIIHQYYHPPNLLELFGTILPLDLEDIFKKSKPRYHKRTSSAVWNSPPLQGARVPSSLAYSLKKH

| pIC50 (KDR) | pIC50 (Aurora B) | pIC50 (Aurora A) | pIC50 [1] | SMILES |
| --- | --- | --- | --- | --- |
| 5.44 | 5.72 | < 4.90 | – | Cc1cccc(NC(=O)Nc2ccc(-c3ccc4c(-c5ccccc5)n[nH]c4c3)cc2)c1 [Example 32, N-(3-methylphenyl)-N′-[4-(3-phenyl-1H-indazol-6-yl)phenyl]urea] |
| 7.62 | 6.81 | < 4.90 | – | Cn1cc(-c2n[nH]c3cc(-c4ccc(NC(=O)Nc5cccc(C(F)(F)F)c5)cc4)ccc23)cn1 [Example 18, N-{4-[3-(1-methyl-1H-pyrazol-4-yl)-1H-indazol-6-yl]phenyl}-N′-[3-(trifluoromethyl)phenyl]urea] |
| 7.42 | 6.06 | < 4.90 | – | Cn1cc(-c2n[nH]c3cc(-c4ccc(NC(=O)Nc5ccc(OC(F)(F)F)cc5)cc4)ccc23)cn1 [Example 28, N-{4-[3-(1-methyl-1H-pyrazol-4-yl)-1H-indazol-6-yl]phenyl}-N′-[4-(trifluoromethoxy)phenyl]urea] |
| 7.01 | 6.11 | < 4.90 | – | Cn1cc(-c2n[nH]c3cc(-c4ccc(NC(=O)Nc5ccccc5OC(F)(F)F)cc4)ccc23)cn1 [Example 27, N-{4-[3-(1-methyl-1H-pyrazol-4-yl)-1H-indazol-6-yl]phenyl}-N′-[2-(trifluoromethoxy)phenyl]urea] |
| 6.23 | 6.92 | < 4.90 | – | Cc1cccc(NC(=O)Nc2ccc(-c3ccc4c(-c5cccnc5)n[nH]c4c3)cc2)c1 [Example 33, N-(3-methylphenyl)-N′-[4-(3-pyridin-3-yl-1H-indazol-6-yl)phenyl]urea] |
| 6.81 | 7.23 | 4.99 | 6.89 | O=C(Nc1ccc(-c2ccc3c(-c4cnn[nH]4)n[nH]c3c2)cc1)Nc1cccc(F)c1 [Example 21, N-(3-fluorophenyl)-N′-{4-[3-(1H-1,2,3-triazol-5-yl)-1H-indazol-6-yl]phenyl}urea] |
| 7.52 | 6.31 | < 4.90 | – | Cn1cc(-c2n[nH]c3cc(-c4ccc(NC(=O)Nc5cccc(OC(F)(F)F)c5)cc4)ccc23)cn1 [Example 25, N-{4-[3-(1-methyl-1H-pyrazol-4-yl)-1H-indazol-6-yl]phenyl}-N′-[3-(trifluoromethoxy)phenyl]urea] |
| 7.31 | 5.88 | < 4.90 | – | Cc1cccc(NC(=O)Nc2cccc(-c3ccc4c(-c5cnn(C)c5)n[nH]c4c3)c2)c1 [Example 17, N-(3-methylphenyl)-N′-{3-[3-(1-methyl-1H-pyrazol-4-yl)-1H-indazol-6-yl]phenyl}urea] |
| 7.50 | 6.71 | < 4.90 | – | Cc1cccc(NC(=O)Nc2ccc(-c3ccc4c(-c5cnn(CCN6CCOCC6)c5)n[nH]c4c3)cc2)c1 [Example 5, N-(3-methylphenyl)-N′-(4-{3-[1-(2-morpholin-4-ylethyl)-1H-pyrazol-4-yl]-1H-indazol-6-yl}phenyl)urea] |
| 5.75 | 6.85 | 5.28 | – | Cn1cc(-c2n[nH]c3cc(-c4ccc(CNC(=O)c5cccc(F)c5)cc4)ccc23)cn1 [Example 31, 3-fluoro-N-{4-[3-(1-methyl-1H-pyrazol-4-yl)-1H-indazol-6-yl]benzyl}benzamide] |
| 4.91 | < 4.90 | < 4.90 | – | Cc1cccc(NC(=O)Nc2ccc(-c3ccc4c(-c5ccsc5)n[nH]c4c3)cc2)c1 [Example 7, N-(3-methylphenyl)-N′-[4-(3-thien-3-yl-1H-indazol-6-yl)phenyl]urea] |
| 5.17 | 6.85 | < 4.90 | – | CC(C)(O)Cn1cc(-c2n[nH]c3cc(-c4ccc(NC(=O)Nc5cccc(F)c5)cc4)ccc23)cn1 [Example 15, N-(3-fluorophenyl)-N′-(4-{3-[1-(2-hydroxy-2-methylpropyl)-1H-pyrazol-4-yl]-1H-indazol-6-yl}phenyl)urea] |
| 6.52 | < 4.90 | < 4.90 | – | Cc1cccc(NC(=O)Nc2ccc(-c3ccc4c(-c5cc6ccccc6[nH]5)n[nH]c4c3)cc2)c1 [Example 36, N-{4-[3-(1H-indol-2-yl)-1H-indazol-6-yl]phenyl}-N′-(3-methylphenyl)urea] |
| 6.56 | < 4.90 | < 4.90 | – | Cc1cccc(NC(=O)Nc2cccc(-c3ccc4c(-c5cccnc5)n[nH]c4c3)c2)c1 [Example 34, N-(3-methylphenyl)-N′-[3-(3-pyridin-3-yl-1H-indazol-6-yl)phenyl]urea] |
| 6.66 | 7.06 | 4.96 | – | CCCn1cc(-c2n[nH]c3cc(-c4ccc(NC(=O)Nc5cccc(F)c5)cc4)ccc23)cn1 [Example 13, N-(3-fluorophenyl)-N′-{4-[3-(1-propyl-1H-pyrazol-4-yl)-1H-indazol-6-yl]phenyl}urea] |
| 6.54 | 6.68 | 5.84 | – | Cc1cccc(NC(=O)Nc2ccc(-c3ccc4c(-c5ccc[nH]5)n[nH]c4c3)cc2)c1 [Example 4, N-(3-methylphenyl)-N′-{4-[3-(1H-pyrrol-2-yl)-1H-indazol-6-yl]phenyl}urea] |
| < 4.90 | < 4.90 | < 4.90 | – | Cn1nccc1-c1n[nH]c2cc(-c3ccc(NC(=O)Nc4cccc(F)c4)cc3)ccc12 [Example 14, N-(3-fluorophenyl)-N′-{4-[3-(1-methyl-1H-pyrazol-5-yl)-1H-indazol-6-yl]phenyl}urea] |
| 6.25 | 6.24 | < 4.90 | – | Cc1cccc(NC(=O)Nc2ccc(-c3ccc4c(-c5cscn5)n[nH]c4c3)cc2)c1 [Example 35, N-(3-methylphenyl)-N′-{4-[3-(1,3-thiazol-4-yl)-1H-indazol-6-yl]phenyl}urea] |
| < 4.90 | 5.99 | < 4.90 | – | Cn1cc(-c2n[nH]c3cc(-c4ccc(CNC(=O)Nc5cccc(F)c5)cc4)ccc23)cn1 [Example 24, N-(3-fluorophenyl)-N′-{4-[3-(1-methyl-1H-pyrazol-4-yl)-1H-indazol-6-yl]benzyl}urea] |

| SMILES | pIC50 (KDR) | pIC50 (Aurora B) | pIC50 (Aurora A) | pIC50 [1] |
| --- | --- | --- | --- | --- |
| O=C(Nc1ccc(-c2ccc3c(-c4cnn(CCO)c4)n[nH]c3c2)cc1)Nc1cccc(C(F)(F)F)c1 [Example 11, N-(4-{3-[1-(2-hydroxyethyl)-1H-pyrazol-4-yl]-1H-indazol-6-yl}phenyl)-N′-[3-(trifluoromethyl)phenyl]urea] | 7.68 | 6.87 | < 4.90 | – |

Reference: patent publication US8293738B2, “Indazole inhibitors of kinase” (Abbott Laboratories, priority 2010, dated 2012)
